Where a SMILES comes first, the peptide text is derived from it. Bridges are numbered along the chain shown (N, C = ends). [ ]: non-standard residue; d: D form. The star is where a group is joined. Phe(4-COOH) = N[C@@H](Cc1ccc(C(=O)O)cc1)C(=O)O; Bip = N[C@@H](Cc1ccc(-c2ccccc2)cc1)C(=O)O; Ala(cPent) = N[C@@H](CC1CCCC1)C(=O)O; Gly(octyl) = CCCCCCCC[C@H](N)C(=O)O; Ala(cPr) = N[C@@H](CC1CC1)C(=O)O; 4Pal = N[C@@H](Cc1ccncc1)C(=O)O; Cha = N[C@@H](CC1CCCCC1)C(=O)O; Cit = NC(=O)NCCC[C@H](N)C(=O)O; Ahp(2) = CCCCC[C@H](N)C(=O)O; Carboxymethyl = O=C(O)C*; Nle = CCCC[C@H](N)C(=O)O; Orn = NCCC[C@H](N)C(=O)O; Dab = NCC[C@H](N)C(=O)O; Dap = NC[C@H](N)C(=O)O
Each compound was assayed against T1, human PD-1 / PD-L1-Ig binding on Jurkat cell line over-expressing human PD-1 (Jurkat-PD-1) (Homo sapiens, UniProt Q15116) (assay: Jurkat-PD-1 Cell Binding High-Content Screening Assay (CBA)). Conditions: Jurkat-PD-1 cells, PE-labeled PD-L1-Ig 20 nM final; read-out: Jurkat HPD1_PDL1 IC50.
T1 construct: expressed in transfected cells; host or cells: Jurkat
Assay type: cell-based
Method in brief: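 Cell-bound PE-labeled PD-L1-Ig (20 nM final, 1 h) measured by high-content imaging after fixation and Hoechst 33342 counterstain. Compound was applied first for 2 h at 37° C. to Jurkat cells over-expressing human PD-1 in DMEM with 10% FCS.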

T1 sequence (Q15116 25-288): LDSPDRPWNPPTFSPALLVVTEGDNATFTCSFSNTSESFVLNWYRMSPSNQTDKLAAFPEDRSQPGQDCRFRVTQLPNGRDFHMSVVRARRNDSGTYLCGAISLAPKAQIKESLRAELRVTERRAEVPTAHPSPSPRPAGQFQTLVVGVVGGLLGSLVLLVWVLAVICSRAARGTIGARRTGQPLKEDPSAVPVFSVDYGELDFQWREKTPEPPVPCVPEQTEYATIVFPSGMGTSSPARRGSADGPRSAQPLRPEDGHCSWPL

IC50	SMILES
38 nM	CC(C)C[C@@H]1NC(=O)[C@H](Cc2c[nH]c3ccccc23)NC(=O)[C@H](CC(=O)O)NC(=O)[C@H](Cc2ccncc2)NC(=O)[C@H](Cc2ccc(OCC(=O)O)cc2)NC(=O)CSC[C@@H](C(=O)NCC(N)=O)NC(=O)[C@H](CO)NC(=O)[C@H](C(C)C)NC(=O)[C@H](CC2CCCCC2)NC(=O)[C@H](CC(N)=O)NC(=O)[C@@H](CC(C)C)NC(=O)[C@H](CCCN)NC(=O)[C@H](C(C)C)NC(=O)[C@H](Cc2ccc(-c3ccccc3)cc2)NC1=O [Compound 1338] ({CH2CO}-Y(Carboxymethyl)[4Pal]DWL[Bip]V[Orn][dL]N[Cha]VSCG-NH2; thioether N-14)
52 nM	CCCC[C@@H]1NC(=O)[C@H](CC(N)=O)NC(=O)[C@@H](CC(C)C)NC(=O)[C@H](CCCN)NC(=O)[C@H](C(C)C)NC(=O)[C@H](Cc2ccc(-c3ccccc3)cc2)NC(=O)[C@H](CC(C)C)NC(=O)[C@H](Cc2c[nH]c3ccccc23)NC(=O)[C@H](CC(=O)O)NC(=O)[C@H](Cc2ccc(O)cc2)NC(=O)[C@H](Cc2ccccc2)NC(=O)CSC[C@@H](C(=O)NCC(N)=O)NC(=O)[C@H](CO)NC(=O)[C@H](C(C)C)NC1=O [Compound 1339] ({CH2CO}-FYDWL[Bip]V[Orn][dL]N[Nle]VSCG-NH2; thioether N-14)
21.7 nM	CCCC[C@@H]1NC(=O)[C@H](CC(N)=O)NC(=O)[C@@H](CC(C)C)NC(=O)[C@H](CCCN)NC(=O)[C@H](C(C)C)NC(=O)[C@H](Cc2ccc(-c3ccccc3)cc2)NC(=O)[C@H](CC(C)C)NC(=O)[C@H](Cc2c[nH]c3ccccc23)NC(=O)[C@H](CC(=O)O)NC(=O)[C@H](Cc2ccc(C(=O)O)cc2)NC(=O)[C@H](Cc2ccc(OCC(=O)O)cc2)NC(=O)CSC[C@@H](C(=O)NCC(N)=O)NC(=O)[C@H](CO)NC(=O)[C@H](C(C)C)NC1=O [Compound 1340] ({CH2CO}-Y(Carboxymethyl)[Phe(4-COOH)]DWL[Bip]V[Orn][dL]N[Nle]VSCG-NH2; thioether N-14)
29.9 nM	CCCC[C@@H]1NC(=O)[C@H](CC(N)=O)NC(=O)[C@@H](CC(C)C)NC(=O)[C@H](CCCN)NC(=O)[C@H](C(C)C)NC(=O)[C@H](Cc2ccc(-c3ccccc3)cc2)NC(=O)[C@H](CC(C)C)NC(=O)[C@H](Cc2c[nH]c3ccccc23)NC(=O)[C@H](CC(=O)O)NC(=O)[C@H](Cc2ccncc2)NC(=O)[C@H](Cc2ccc(OCC(=O)O)cc2)NC(=O)CSC[C@@H](C(=O)NCC(N)=O)NC(=O)[C@H](CO)NC(=O)[C@H](C(C)C)NC1=O [Compound 1343] ({CH2CO}-Y(Carboxymethyl)[4Pal]DWL[Bip]V[Orn][dL]N[Nle]VSCG-NH2; thioether N-14)
31 nM	CC(C)C[C@H]1NC(=O)[C@H](CCCN)NC(=O)[C@H](CCCNC(N)=O)NC(=O)[C@H](Cc2ccc(-c3ccccc3)cc2)NC(=O)[C@H](C(C)C)NC(=O)[C@H](Cc2c[nH]c3ccccc23)NC(=O)[C@H](CC(=O)O)NC(=O)[C@H](Cc2ccc(OCC(=O)O)cc2)NC(=O)[C@H](CN)NC(=O)CSC[C@@H](C(=O)N[C@@H](C)C(N)=O)NC(=O)[C@H]([C@@H](C)O)NC(=O)[C@H](C(C)C)NC(=O)[C@H](Cc2ccccc2)NC(=O)[C@H](CCN)NC1=O [Compound 1344] ({CH2CO}-[Dap]Y(Carboxymethyl)DWV[Bip][Cit][Orn][dL][Dab]FVTCA-NH2; thioether N-14)
236 nM	CC(C)C[C@H]1NC(=O)[C@H](CCCN)NC(=O)[C@H](CCCNC(N)=O)NC(=O)[C@H](Cc2ccc(-c3ccccc3)cc2)NC(=O)[C@H](C(C)C)NC(=O)[C@H](Cc2c[nH]c3ccccc23)NC(=O)[C@H](CC(=O)O)NC(=O)[C@H](Cc2ccc(OCC(=O)O)cc2)NC(=O)[C@H](CN)NC(=O)CSC[C@@H](C(=O)N[C@@H](C)C(N)=O)NC(=O)[C@H]([C@@H](C)O)NC(=O)[C@H](C(C)C)NC(=O)[C@H](Cc2ccncc2)NC(=O)[C@H](CCN)NC1=O [Compound 1345] ({CH2CO}-[Dap]Y(Carboxymethyl)DWV[Bip][Cit][Orn][dL][Dab][4Pal]VTCA-NH2; thioether N-14)
95.8 nM	CC(C)C[C@H]1NC(=O)[C@H](CCCN)NC(=O)[C@H](CCCNC(N)=O)NC(=O)[C@H](Cc2ccc(-c3ccccc3)cc2)NC(=O)[C@H](C(C)C)NC(=O)[C@H](Cc2c[nH]c3ccccc23)NC(=O)[C@H](CC(=O)O)NC(=O)[C@H](Cc2ccc(OCC(=O)O)cc2)NC(=O)[C@H](CN)NC(=O)CSC[C@@H](C(=O)N[C@@H](C)C(N)=O)NC(=O)[C@H]([C@@H](C)O)NC(=O)[C@H](C(C)C)NC(=O)[C@H](Cc2ccc(O)cc2)NC(=O)[C@H](CCN)NC1=O [Compound 1346] ({CH2CO}-[Dap]Y(Carboxymethyl)DWV[Bip][Cit][Orn][dL][Dab]YVTCA-NH2; thioether N-14)
26.4 nM	CCCCC[C@@H]1NC(=O)[C@H](CCN)NC(=O)[C@@H](CC(C)C)NC(=O)[C@H](CCCN)NC(=O)[C@H](CCCNC(N)=O)NC(=O)[C@H](Cc2ccc(-c3ccccc3)cc2)NC(=O)[C@H](C(C)C)NC(=O)[C@H](Cc2c[nH]c3ccccc23)NC(=O)[C@H](CC(=O)O)NC(=O)[C@H](Cc2ccc(OCC(=O)O)cc2)NC(=O)[C@H](CN)NC(=O)CSC[C@@H](C(=O)N[C@@H](C)C(N)=O)NC(=O)[C@H]([C@@H](C)O)NC(=O)[C@H](C(C)C)NC1=O [Compound 1347] ({CH2CO}-[Dap]Y(Carboxymethyl)DWV[Bip][Cit][Orn][dL][Dab][Ahp(2)]VTCA-NH2; thioether N-14)
40 nM	CC(C)C[C@H]1NC(=O)[C@H](CCCN)NC(=O)[C@H](CCCNC(N)=O)NC(=O)[C@H](Cc2ccc(-c3ccccc3)cc2)NC(=O)[C@H](C(C)C)NC(=O)[C@H](Cc2c[nH]c3ccccc23)NC(=O)[C@H](CC(=O)O)NC(=O)[C@H](Cc2ccc(OCC(=O)O)cc2)NC(=O)[C@H](CN)NC(=O)CSC[C@@H](C(=O)N[C@@H](C)C(N)=O)NC(=O)[C@H]([C@@H](C)O)NC(=O)[C@H](C(C)C)NC(=O)[C@H](CCC2CCCCC2)NC(=O)[C@H](CCN)NC1=O [Compound 1348]
54.9 nM	CC(C)C[C@H]1NC(=O)[C@H](CCCN)NC(=O)[C@H](CCCNC(N)=O)NC(=O)[C@H](Cc2ccc(-c3ccccc3)cc2)NC(=O)[C@H](C(C)C)NC(=O)[C@H](Cc2c[nH]c3ccccc23)NC(=O)[C@H](CC(=O)O)NC(=O)[C@H](Cc2ccc(OCC(=O)O)cc2)NC(=O)[C@H](CN)NC(=O)CSC[C@@H](C(=O)N[C@@H](C)C(N)=O)NC(=O)[C@H]([C@@H](C)O)NC(=O)[C@H](C(C)C)NC(=O)[C@H](Cc2ccccn2)NC(=O)[C@H](CCN)NC1=O [Compound 1349]
162 nM	CC(C)C[C@H]1NC(=O)[C@H](CCCN)NC(=O)[C@H](CCCNC(N)=O)NC(=O)[C@H](Cc2ccc(-c3ccccc3)cc2)NC(=O)[C@H](C(C)C)NC(=O)[C@H](Cc2c[nH]c3ccccc23)NC(=O)[C@H](CC(=O)O)NC(=O)[C@H](Cc2ccc(OCC(=O)O)cc2)NC(=O)[C@H](CN)NC(=O)CSC[C@@H](C(=O)N[C@@H](C)C(N)=O)NC(=O)[C@H]([C@@H](C)O)NC(=O)[C@H](C(C)C)NC(=O)[C@H](Cc2cccnc2)NC(=O)[C@H](CCN)NC1=O [Compound 1350]
121 nM	COc1ccc(C[C@@H]2NC(=O)[C@H](CCN)NC(=O)[C@@H](CC(C)C)NC(=O)[C@H](CCCN)NC(=O)[C@H](CCCNC(N)=O)NC(=O)[C@H](Cc3ccc(-c4ccccc4)cc3)NC(=O)[C@H](C(C)C)NC(=O)[C@H](Cc3c[nH]c4ccccc34)NC(=O)[C@H](CC(=O)O)NC(=O)[C@H](Cc3ccc(OCC(=O)O)cc3)NC(=O)[C@H](CN)NC(=O)CSC[C@@H](C(=O)N[C@@H](C)C(N)=O)NC(=O)[C@H]([C@@H](C)O)NC(=O)[C@H](C(C)C)NC2=O)cc1 [Compound 1351] ({CH2CO}-[Dap]Y(Carboxymethyl)DWV[Bip][Cit][Orn][dL][Dab]Y(Me)VTCA-NH2; thioether N-14)
110 nM	CCCCCCCC[C@@H]1NC(=O)[C@H](CCN)NC(=O)[C@@H](CC(C)C)NC(=O)[C@H](CCCN)NC(=O)[C@H](CCCNC(N)=O)NC(=O)[C@H](Cc2ccc(-c3ccccc3)cc2)NC(=O)[C@H](C(C)C)NC(=O)[C@H](Cc2c[nH]c3ccccc23)NC(=O)[C@H](CC(=O)O)NC(=O)[C@H](Cc2ccc(OCC(=O)O)cc2)NC(=O)[C@H](CN)NC(=O)CSC[C@@H](C(=O)N[C@@H](C)C(N)=O)NC(=O)[C@H]([C@@H](C)O)NC(=O)[C@H](C(C)C)NC1=O [Compound 1352] ({CH2CO}-[Dap]Y(Carboxymethyl)DWV[Bip][Cit][Orn][dL][Dab][Gly(octyl)]VTCA-NH2; thioether N-14)
10.9 nM	CC(C)C[C@H]1NC(=O)[C@H](CCCN)NC(=O)[C@H](CCCNC(N)=O)NC(=O)[C@H](Cc2ccc(-c3ccccc3)cc2)NC(=O)[C@H](CC2CCCC2)NC(=O)[C@H](Cc2c[nH]c3ccccc23)NC(=O)[C@H](CC(=O)O)NC(=O)[C@H](Cc2ccc(OCC(=O)O)cc2)NC(=O)[C@H](CN)NC(=O)CSC[C@@H](C(=O)N[C@@H](C)C(N)=O)NC(=O)[C@H]([C@@H](C)O)NC(=O)[C@H](C(C)C)NC(=O)[C@H](CC2CCCCC2)NC(=O)[C@H](CCN)NC1=O [Compound 1353] ({CH2CO}-[Dap]Y(Carboxymethyl)DW[Ala(cPent)][Bip][Cit][Orn][dL][Dab][Cha]VTCA-NH2; thioether N-14)
13.9 nM	CC(C)C[C@H]1NC(=O)[C@H](CCCN)NC(=O)[C@H](CCCNC(N)=O)NC(=O)[C@H](Cc2ccc(-c3ccccc3)cc2)NC(=O)[C@H](CC2CC2)NC(=O)[C@H](Cc2c[nH]c3ccccc23)NC(=O)[C@H](CC(=O)O)NC(=O)[C@H](Cc2ccc(OCC(=O)O)cc2)NC(=O)[C@H](CN)NC(=O)CSC[C@@H](C(=O)N[C@@H](C)C(N)=O)NC(=O)[C@H]([C@@H](C)O)NC(=O)[C@H](C(C)C)NC(=O)[C@H](CC2CCCCC2)NC(=O)[C@H](CCN)NC1=O [Compound 1354] ({CH2CO}-[Dap]Y(Carboxymethyl)DW[Ala(cPr)][Bip][Cit][Orn][dL][Dab][Cha]VTCA-NH2; thioether N-14)
